The test addresses IDO1 (Homo sapiens, UniProt P14902). The test can be described thus: IDO1 Cellular Assay in HeLa Cells Stimulated with IFNγ. The conditions noted are these: about 48 hours, read-out: Hela IC50. The format is cell-based.
Chain of IDO1 (P14902 whole entry): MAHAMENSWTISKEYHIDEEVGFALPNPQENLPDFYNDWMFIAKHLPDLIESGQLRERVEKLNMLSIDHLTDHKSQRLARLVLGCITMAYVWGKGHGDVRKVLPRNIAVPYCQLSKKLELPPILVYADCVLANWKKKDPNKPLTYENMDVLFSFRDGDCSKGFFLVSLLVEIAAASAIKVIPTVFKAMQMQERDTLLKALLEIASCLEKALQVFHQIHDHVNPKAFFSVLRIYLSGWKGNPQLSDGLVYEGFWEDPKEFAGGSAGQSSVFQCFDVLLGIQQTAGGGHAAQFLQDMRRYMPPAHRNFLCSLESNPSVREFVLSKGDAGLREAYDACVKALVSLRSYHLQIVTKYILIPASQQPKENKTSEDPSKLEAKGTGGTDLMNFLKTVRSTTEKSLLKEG
Regarding `Cc1nc(C(=O)N2CCCc3cc([C@@H](C)C(=O)Nc4ccc(F)cn4)ccc32)no1` [Example 64, (2R)-N-(5-fluoropyridin-2-yl)-2-[1-(5-methyl-1,2,4-oxadiazole-3-carbonyl)-1,2,3,4-tetrahydroquinolin-6-yl]propanamide], the IC50 was 44.4 nM.
Then `CC(C(=O)Nc1ccc(F)cc1)c1ccc2c(c1)CCCN2C(=O)C1(C(F)(F)F)CC1` (stereo not drawn) [Example 66, N-(4-fluorophenyl)-2-{1-[1-(trifluoromethyl)cyclopropane-1-carbonyl]-1,2,3,4-tetrahydroquinolin-6-yl}propanamide], with 7.2 nM; and `C[C@H](C(=O)Nc1ccc(F)cc1)c1ccc2c(c1)CCCN2C(=O)C[C@@H](C)O` [Example 68, (2S)-N-(4-fluorophenyl)-2-{1-[(3R)-3-hydroxybulanoyl]-1,2,3,4-tetrahydroquinolin-6-yl}propanamide], with 296 nM.
In the case of `CC(=O)N1CC(C(=O)N2CCCc3cc([C@H](C)C(=O)Nc4ccc(F)cc4)ccc32)C1` [Example 69, (2S)-2-[1-(1-acetylazetidine-3-carbonyl)-1,2,3,4-tetrahydroquinolin-6-yl]-N-(4-fluorophenyl)propanamide], the IC50 stood at 9020 nM.
On to `C[C@H](C(=O)Nc1ccc(F)cc1)c1ccc2c(c1)CCCN2C(=O)CCOC(C)(C)C` [Example 70, (2S)-2-[1-(3-tert-butoxypropanoyl)-1,2,3,4-tetrahydroquinolin-6-yl]-N-(4-fluorophenyl)propanamide], for which the IC50 is 3380 nM.
Turning to `C[C@H](C(=O)Nc1ccc(F)cc1)c1ccc2c(c1)CCCN2C(=O)CC(C)(C)O` [Example 71, (2S)-N-(4-fluorophenyl)-2-[1-(3-hydroxy-3-methylbutanoyl)-1,2,3,4-tetrahydroquinolin-6-yl]propanamide], the IC50 was determined as 30.3 nM.
With `C[C@H](C(=O)Nc1ccc(F)cc1)c1ccc2c(c1)CCCN2C(=O)C1CN(C)CCO1` (stereo partly drawn) [Example 74, (2S)-N-(4-fluorophenyl)-2-[1-(4-methylmorpholine-2-carbonyl)-1,2,3,4-tetrahydroquinolin-6-yl]propanamide], the concentration for half-maximal inhibition (IC50) stood at 460 nM.
The figure for `COCCOCC(=O)N1CCCc2cc([C@H](C)C(=O)Nc3ccc(F)cc3)ccc21` [Example 77, (2S)-N-(4-fluorophenyl)-2-{1-[(2-methoxyethoxy)acetyl]-1,2,3,4-tetrahydroquinolin-6-yl}propanamide] is 1240 nM; for `C[C@H](C(=O)Nc1ccc(F)cc1)c1ccc2c(c1)CCCN2C(=O)[C@@H]1CCOC1` [Example 78, (2S)-N-(4-fluorophenyl)-2-{1-[(3R)-oxolane-3-carbonyl]-1,2,3,4-tetrahydroquinolin-6-yl}propanamide] it is 51.6 nM; for `C[C@H](C(=O)Nc1ccc(F)cc1)c1ccc2c(c1)CCCN2C(=O)C1CC(F)(F)C1` [Example 79, (2S)-2-[1-(3,3-difluorocyclobutane-1-carbonyl)-1,2,3,4-tetrahydroquinolin-6-yl]-N-(4-fluorophenyl)propanamide] it is 34.7 nM.
On to `C[C@H](C(=O)Nc1ccc(F)cc1)c1ccc2c(c1)CCCN2C(=O)C1CCC1` [Example 80, (2S)-2-[1-(cyclobutanecarbonyl)-1,2,3,4-tetrahydroquinolin-6-yl]-N-(4-fluorophenyl)propanamide], for which the IC50 is 4.5 nM.
Take `C[C@H](C(=O)Nc1ccc(F)cc1)c1ccc2c(c1)CCCN2C(=O)CC1CC1` [Example 82, (2S)-2-[1-(cyclopropylacetyl)-1,2,3,4-tetrahydroquinolin-6-yl]-N-(4-fluorophenyl)propanamide]: the half-maximal inhibitory concentration (IC50) stood at 10.9 nM.
With `CC(C)C(=O)N1CCCc2cc([C@H](C)C(=O)Nc3ccc(F)cc3)ccc21` [Example 83, (2S)-N-(4-fluorophenyl)-2-[1-(2-methylpropanoyl)-1,2,3,4-tetrahydroquinolin-6-yl]propanamide], the IC50 is 9.4 nM.
`C[C@H](C(=O)Nc1ccc(F)cc1)c1ccc2c(c1)CCCN2C(=O)[C@@H]1CCCO1` [Example 84, (2S)-N-(4-fluorophenyl)-2-{1-[(2S)-oxolane-2-carbonyl]-1,2,3,4-tetrahydroquinolin-6-yl]propanamide]: the IC50 worked out at 32.3 nM.
For the compound `C[C@H](C(=O)Nc1ccc(F)cc1)c1ccc2c(c1)CCCN2C(=O)CC#N` [Example 85, (2S)-2-[1-(cyanoacetyl)-1,2,3,4-tetrahydroquinolin-6-yl]-N-(4-fluorophenyl)propanamide], the IC50 is 2540 nM.
The figure for `CO[C@H]1C[C@H](C(=O)N2CCCc3cc([C@H](C)C(=O)Nc4ccc(F)cc4)ccc32)C1` [Example 86, (2S)-N-(4-fluorophenyl)-2-[1-(trans-3-methoxycyclobutane-1-carbonyl)-1,2,3,4-tetrahydroquinolin-6-yl]propanamide] is 17.6 nM; for `C[C@H](C(=O)Nc1ccc(F)cc1)c1ccc2c(c1)CCCN2C(=O)CC(C)(C)C` [Example 90, (2S)-2-[1-(3,3-dimethylbutanoyl)-1,2,3,4-tetrahydroquinolin-6-yl]-N-(4-fluorophenyl)propanamide] it is 7 nM; for `C[C@H](C(=O)Nc1ccc(F)cc1)c1ccc2c(c1)CCCN2C(=O)CC(F)(F)F` [Example 91, (2S)-N-(4-fluorophenyl)-2-[1-(3,3,3-trifluoropropanoyl)-1,2,3,4-tetrahydroquinolin-6-yl]propanamide] it is 105 nM.
In the case of `O=C(N1CCCc2cc(C3(C(=O)Nc4ccc(F)cn4)CCC3)ccc21)C1(F)CC1` [Example 99, 1-[1-(1-fluorocyclopropane-1-carbonyl)-1,2,3,4-tetrahydroquinolin-6-yl]-N-(5-fluoropyridin-2-yl)cyclobutane-1-carboxamide], the half-inhibitory concentration (IC50) came out at 16.8 nM.
Regarding `CN(C)C(=O)N1CCCc2cc(C3(C(=O)Nc4ccc(F)cn4)CCC3)ccc21` [Example 102, 6-{1-[(5-fluoropyridin-2-yl)carbamoyl]cyclobutyl}-N,N-dimethyl-3,4-dihydroquinoline-1(2H)-carboxamide], the IC50 amounted to 149 nM.
Turning to `O=C(N1CCCC1)N1CCCc2cc(C3(C(=O)Nc4ccc(F)cn4)CCC3)ccc21` [Example 103, N-(5-fluoropyridin-2-yl)-1-[1-(pyrrolidine-1-carbonyl)-1,2,3,4-tetrahydroquinolin-6-yl]cyclobutane-1-carboxamide], the IC50 was 76.7 nM.
As to `Cc1cc(C(=O)N2CCCc3cc(C4(C(=O)Nc5ccc(F)cn5)CCC4)ccc32)ncn1` [Example 107, N-(5-fluoropyridin-2-yl)-1-[1-(6-methylpyrimidine-4-carbonyl)-1,2,3,4-tetrahydroquinolin-6-yl]cyclobutane-1-carboxamide], the IC50 was found to be 12.8 nM.
As for `N#Cc1cccc(C(=O)N2CCCc3cc(C4(C(=O)Nc5ccc(F)cn5)CCC4)ccc32)c1` [Example 108, 1-[1-(3-cyanobenzene-1-carbonyl)-1,2,3,4-tetrahydroquinolin-6-yl]-N-(5-fluoropyridin-2-yl)cyclobutane-1-carboxamide], the half-inhibitory concentration (IC50) came to 4.9 nM.
As to `Cc1n[nH]c(C(=O)N2CCCc3cc(C4(C(=O)Nc5ccc(F)cc5)CCC4)ccc32)n1` [Example 109, N-(4-fluorophenyl)-1-[1-(3-methyl-1H-1,2,4-triazole-5-carbonyl)-1,2,3,4-tetrahydroquinolin-6-yl]cyclobutane-1-carboxamide], the IC50 is 16.2 nM.
The figure for `O=C(c1nnc(C(F)(F)F)[nH]1)N1CCCc2cc(C3(C(=O)Nc4ccc(F)cc4)CCC3)ccc21` [Example 110, N-(4-fluorophenyl)-1-{1-[5-(trifluoromethyl)-4H-1,2,4-triazole-3-carbonyl]-1,2,3,4-tetrahydroquinolin-6-yl}cyclobutane-1-carboxamide] is 248 nM; for `Cc1c(C(=O)N2CCCc3cc(C4(C(=O)Nc5ccc(F)cc5)CCC4)ccc32)cnn1C` [Example 111, 1-[1-(1,5-dimethyl-1H-pyrazole-4-carbonyl)-1,2,3,4-tetrahydroquinolin-6-yl]-N-(4-fluorophenyl)cyclobutane-1-carboxamide] it is 65.5 nM.
Then `CCn1cc(C(=O)N2CCCc3cc(C4(C(=O)Nc5ccc(F)cc5)CCC4)ccc32)cn1` [Example 112, 1-[1-(1-ethyl-1H-pyrazole-4-carbonyl)-1,2,3,4-tetrahydroquinolin-6-yl]-N-(4-fluorophenyl)cyclobutane-1-carboxamide], with 2.7 nM.
Take `O=C(c1cnn(C2CC2)c1)N1CCCc2cc(C3(C(=O)Nc4ccc(F)cc4)CCC3)ccc21` [Example 113, 1-[1-(1-cyclopropyl-1H-pyrazole-4-carbonyl)-1,2,3,4-tetrahydroquinolin-6-yl]-N-(4-fluorophenyl)cyclobutane-1-carboxamide]: the IC50 stood at 65.8 nM.
The figure for `O=C(c1cnn(CC(F)F)c1)N1CCCc2cc(C3(C(=O)Nc4ccc(F)cc4)CCC3)ccc21` [Example 114, 1-{1-[1-(2,2-difluoroethyl)-1H-pyrazole-4-carbonyl]-1,2,3,4-tetrahydroquinolin-6-yl}-N-(4-fluorophenyl)cyclobutane-1-carboxamide] is 86.1 nM.
Turning to `O=C(c1cc(C(F)(F)F)n[nH]1)N1CCCc2cc(C3(C(=O)Nc4ccc(F)cc4)CCC3)ccc21` [Example 116, N-(4-fluorophenyl)-1-{1-[3-(trifluoromethyl)-1H-pyrazole-5-carbonyl]-1,2,3,4-tetrahydroquinolin-6-yl}cyclobutane-1-carboxamide], the IC50 was found to be 51.4 nM.
For `O=C(c1cc(C2CC2)n[nH]1)N1CCCc2cc(C3(C(=O)Nc4ccc(F)cc4)CCC3)ccc21` [Example 117, 1-[1-(3-cyclopropyl-1H-pyrazole-5-carbonyl)-1,2,3,4-tetrahydroquinolin-6-yl]-N-(4-fluorophenyl)cyclobutane-1-carboxamide], the IC50 turned out to be 17.7 nM.
As to `Cc1ccnc(C(=O)N2CCCc3cc(C4(C(=O)Nc5ccc(F)cn5)CCC4)ccc32)n1` [Example 118, N-(5-fluoropyridin-2-yl)-1-[1-(4-methylpyrimidine-2-carbonyl)-1,2,3,4-tetrahydroquinolin-6-yl]cyclobutane-1-carboxamide], the IC50 is 1.5 nM.
Take `CC(C)(C)OC(=O)N1CCCc2cc(C3(C(=O)NC45CC(C4)C5)CCC3)ccc21` [Example 119, tert-butyl 6-{1-[(bicyclo[1.1.1]pentan-1-yl)carbamoyl]cyclobutyl}-3,4-dihydroquinoline-1(2H)-carboxylate]: the IC50 is 87.6 nM.

Usually IC50 stands for the concentration at which inhibition is half-maximal.

(Values after US12275729B2 (Merck Sharp & Dohme LLC, priority 2017, dated 2025).)
